# Entries after “also recorded” stand apart in the source; their conditions may differ.
# Test system: rat model of arthritis (bone uptake)
# Assay: PET imaging in rat HKMT/IFA model of arthritis
# Assay type: in vivo
# Text: Single modality BP imaging probes with ^18F were generated according to the Schemes described in FIGS. 6A-6B and FIG. 7. […] A rat (Lewis rats, 6-12 weeks of age) model of arthritis was generated by subcutaneous injection of heat killed Mycobacterium tuberculosis (strain H37Ra) suspended in incomplete Freund's adjuvant (HKMT/IFA). […] The swelling was easily identifiable by day 16 post injection, but undetectable in the animals on day 7 (FIGS. 12A-12D).
# Rats were given a total of about 500 μCi (about 0.5 nmole) of freshly prepared ^18F-RIS-SFB (single modality BP conjugated imaging probe) by i.v. injection. PET imaging was conducted using a GE eXplore Vista small animal PET system.
structure (smiles),measurement,setting,value
[18F-].[Na+] [Na^18F],time at which increased accumulation in bone is seen by PET,"RA model rats, post induction",~18 days
same,detection of early bone involvement in RA by PET,"early time point (day 7), before clinical signs",fails to detect the earliest signs of bone involvement in RA; also recorded: does not detect the early bone involvement in RA at day 7

# Source: patent US20160310621A1, “IMAGING PROBES, FORMULATIONS, AND USES THEREOF” (priority 2015, published 2016)
